# Experimental data as given in US20250303062A1, “Methods for controlling drug administration” (NUTROMICS […] LTD, priority 2022, published 2025).
# What was measured:
# [1] = molecular target: DNA-aptamer for vancomycin; experiment: Titration curve of vancomycin EAB sensor by square-wave voltammetry, dissociation constant of the aptamer; assay type: binding
# Method: Each combination of electrode/matrix was electrochemically interrogated via square-wave voltammetry to obtain two set of data: • A frequency map, where the signal-on and signal-off frequencies were determined for a particular amplitude. • A titration curve, where the sensor is interrogated at several concentrations of vancomycin by using the optimal signal-on frequency (responsible for the sensing event).
# The titration curve also allowed determination of the dissociation constant of the aptamer in the employed matrix.
# • Estart=between −0.5 and −0.4 V • Efinal=between −0.2 and −0.1 V • Eref=Ag|AgCl
# • fix A=optimal amplitude (25 mV for vancomycin-in-vitro) • scan f=optimal signal-on value (between 80 and 100 Hz) and signal-off value (lower than 15 Hz)
# Reference is made to FIG. 13 showing response of a vancomycin sensitive microelectrode (d=340 μm) in (i) human serum and (artificial ISF including BSA, and globulin as described above). The following equation describes an isotherm that represents the response of the sensing layer to the presence of different concentrations of vancomycin.
# Reference is made to FIG. 17, showing data comparing the use of two different mathematical approaches for obtaining KD, which generated consisting fitting.
# [2] = Human study: vancomycin in ISF by wearable EAB sensor vs serum; assay type: in vivo; details: healthy participants, single intravenous infusion 1 gram over 1 hour 40 minutes, ISF measured every 5 minutes
# Method: These human studies followed vancomycin levels using an EAB sensor (which may also be referred to as the “device”). The device was a self-contained wearable EAB sensor, constructed, having an on-board power supply, electrodes, and electronics, including a microprocessor and BlueTooth™ communications module.
# A vancomycin-sensitive EAB sensor was placed onto the participant's upper arm (see FIG. 20), opposite the arm where vancomycin was being infused. The time of device application was recorded. The device was applied 30 minutes (+15 minutes) prior to administering the vancomycin infusion and the device was removed up to 10 hours post-cessation of the infusion.
# 30 minutes (+15 minutes) post-application of the device, the participant received a single dose of vancomycin as an intravenous infusion (1 gram over 1 hour 40 minutes). The time of administration and completion of infusion was recorded. […]
# Square Wave Voltammetry (SWV) was used to interrogate the DNA-based sensor electrodes. […] Use the determined peak currents magnitudes obtained at two different SWV interrogation frequencies (in this case 50 Hz and 300 Hz), when no vancomycin is present and when it is present to calculate an analyte concentration responsive signal(S). • 4. […]
structure (smiles),measurement,setting,value
CN[C@H](CC(C)C)C(=O)N[C@H]1C(=O)N[C@@H](CC(N)=O)C(=O)N[C@H]2C(=O)N[C@H]3C(=O)N[C@H](C(=O)N[C@H](C(=O)O)c4cc(O)cc(O)c4-c4cc3ccc4O)[C@H](O)c3ccc(c(Cl)c3)Oc3cc2cc(c3O[C@@H]2O[C@H](CO)[C@@H](O)[C@H](O)[C@H]2O[C@H]2C[C@](C)(N)[C@H](O)[C@H](C)O2)Oc2ccc(cc2Cl)[C@H]1O [vancomycin],KD,"[1]; human serum, smaller sensing area (microelectrode d=170 μm), two mathematical approaches",preserved
same,KD (the dissociation constant of the DNA aptamer),"[1]; microelectrode d=340 μm, synthetic interstitial fluid containing proteins compared with human serum",similar
same,vancomycin in the ISF compartment (ISF vs blood),[2],high variation
